US7452887B2, “Quinoline- and isoquinoline-based compounds exhibiting ATP-utilizing enzyme inhibitory activity, and compositions, and uses thereof” (Amphora Discovery Corporation, priority 2004, dated 2008)

Experiments:
Assay in all cases: HTS ATP-utilizing enzyme assay, off-chip mobility-shift (Caliper HTS 250)
Format in all cases: biochemical
Details in all cases: test compound 10 μM, kinase listed = active (greater than six-sigma from the mean activity of inactive compounds)
[1] = target: MAPKAPK2 (Homo sapiens, UniProt P49137)
Sequence of MAPKAPK2 (P49137 whole entry): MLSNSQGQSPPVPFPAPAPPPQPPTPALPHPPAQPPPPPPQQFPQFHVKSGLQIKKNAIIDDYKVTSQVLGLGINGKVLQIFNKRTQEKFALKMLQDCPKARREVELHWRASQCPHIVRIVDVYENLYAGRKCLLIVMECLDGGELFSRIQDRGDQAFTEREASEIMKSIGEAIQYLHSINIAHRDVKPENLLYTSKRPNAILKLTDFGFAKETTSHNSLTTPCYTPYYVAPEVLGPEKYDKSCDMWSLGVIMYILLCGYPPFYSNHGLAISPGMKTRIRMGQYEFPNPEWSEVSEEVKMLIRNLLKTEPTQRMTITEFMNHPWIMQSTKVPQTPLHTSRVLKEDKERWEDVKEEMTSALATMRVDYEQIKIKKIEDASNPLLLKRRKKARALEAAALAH
Summary of the method: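 Single-point screen of test compound at 10 μM against MAPKAPK2 with peptide substrate in HEPES pH 7.5 buffer (Triton X-100, BSA), 2.5 h at 20-22 °C. Substrate-to-phosphopeptide ratio was read by off-chip microfluidic mobility shift; EDTA and DMSO wells defined 100% and 0% controls, hits by six-sigma limits.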

[2] = target: AKT1 (Homo sapiens, UniProt P31749)
Sequence of AKT1 (P31749 whole entry): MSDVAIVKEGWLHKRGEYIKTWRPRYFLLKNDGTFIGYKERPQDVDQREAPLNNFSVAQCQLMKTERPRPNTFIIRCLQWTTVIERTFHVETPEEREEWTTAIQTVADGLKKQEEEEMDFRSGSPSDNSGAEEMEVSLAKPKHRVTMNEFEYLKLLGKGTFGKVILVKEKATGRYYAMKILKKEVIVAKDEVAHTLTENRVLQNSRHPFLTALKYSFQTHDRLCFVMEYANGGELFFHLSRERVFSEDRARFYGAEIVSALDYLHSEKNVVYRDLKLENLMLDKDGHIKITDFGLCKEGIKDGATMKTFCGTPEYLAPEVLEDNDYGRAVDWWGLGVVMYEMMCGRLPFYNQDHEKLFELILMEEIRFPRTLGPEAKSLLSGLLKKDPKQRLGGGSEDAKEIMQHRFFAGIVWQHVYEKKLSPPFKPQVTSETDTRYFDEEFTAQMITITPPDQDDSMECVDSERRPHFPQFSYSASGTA
Summary of the method: (§1)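 Test compound at 10 μM final was incubated with kinase and peptide substrate in HEPES pH 7.5 buffer with Triton X-100 and BSA for 2.5 hrs at 20° C. to 22° C., then stopped with EDTA. Inhibition came from the substrate-to-phosphorylated-product ratio on a microfluidic mobility-shift read. EDTA wells served as 100% control.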

[3] = target: AKT3 (Homo sapiens, UniProt Q9Y243)
Sequence of AKT3 (Q9Y243 whole entry): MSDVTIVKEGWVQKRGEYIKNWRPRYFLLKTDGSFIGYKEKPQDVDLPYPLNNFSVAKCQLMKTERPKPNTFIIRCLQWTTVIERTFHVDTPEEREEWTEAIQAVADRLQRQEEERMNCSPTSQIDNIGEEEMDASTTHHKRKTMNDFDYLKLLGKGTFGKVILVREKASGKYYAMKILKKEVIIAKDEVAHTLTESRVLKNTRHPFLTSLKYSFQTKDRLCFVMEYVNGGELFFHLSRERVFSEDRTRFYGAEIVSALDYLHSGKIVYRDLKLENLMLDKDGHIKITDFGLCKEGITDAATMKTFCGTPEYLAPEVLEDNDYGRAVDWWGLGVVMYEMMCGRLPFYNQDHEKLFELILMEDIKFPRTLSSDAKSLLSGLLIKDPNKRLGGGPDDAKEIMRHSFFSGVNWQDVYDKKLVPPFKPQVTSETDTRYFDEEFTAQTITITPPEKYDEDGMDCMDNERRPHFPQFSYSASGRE
Summary of the method: as §1

[4] = target: T1, NEK2 (Homo sapiens, UniProt P51955)
T1 sequence (P51955 1-445): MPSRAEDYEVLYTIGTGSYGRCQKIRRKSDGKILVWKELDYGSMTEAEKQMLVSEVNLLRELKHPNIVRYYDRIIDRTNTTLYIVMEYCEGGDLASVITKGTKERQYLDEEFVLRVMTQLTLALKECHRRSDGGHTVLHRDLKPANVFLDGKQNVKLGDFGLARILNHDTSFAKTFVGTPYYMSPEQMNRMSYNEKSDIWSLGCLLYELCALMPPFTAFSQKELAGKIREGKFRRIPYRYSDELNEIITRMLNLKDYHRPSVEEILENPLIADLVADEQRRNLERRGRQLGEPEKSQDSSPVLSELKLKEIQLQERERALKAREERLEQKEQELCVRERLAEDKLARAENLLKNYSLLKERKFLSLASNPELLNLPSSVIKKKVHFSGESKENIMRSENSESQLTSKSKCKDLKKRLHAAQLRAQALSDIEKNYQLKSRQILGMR
Summary of the method: as §1

[5] = target: T2, PRAK (Homo sapiens, UniProt Q8IW41)
T2 sequence (Q8IW41 1-473): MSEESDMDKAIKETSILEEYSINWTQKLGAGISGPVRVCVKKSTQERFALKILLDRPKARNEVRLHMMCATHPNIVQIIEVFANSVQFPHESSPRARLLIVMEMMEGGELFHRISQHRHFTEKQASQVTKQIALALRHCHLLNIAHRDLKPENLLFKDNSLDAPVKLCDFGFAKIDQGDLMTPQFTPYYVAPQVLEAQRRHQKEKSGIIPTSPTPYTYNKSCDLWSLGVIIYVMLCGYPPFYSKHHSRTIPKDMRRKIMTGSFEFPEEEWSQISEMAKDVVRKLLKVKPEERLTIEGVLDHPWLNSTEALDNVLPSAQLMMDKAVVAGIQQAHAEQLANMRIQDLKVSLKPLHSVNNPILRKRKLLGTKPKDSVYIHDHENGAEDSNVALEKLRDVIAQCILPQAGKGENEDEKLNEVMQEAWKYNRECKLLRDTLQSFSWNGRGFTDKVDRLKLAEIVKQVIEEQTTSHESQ
Summary of the method: as §1

Activity [1]: MAPKAPK2
Activity [2]: AKT1
Activity [3]: AKT3
Activity [4]: NEK2
Activity [5]: PRAK
Compound: CN1CCN(c2ccc(Nc3ccnc4ccc(-c5cccc(C#N)c5)cc34)cc2)CC1 [3-(4-(4-(4-methylpiperazin-1-yl)phenylamino)quinolin-6-yl)benzonitrile]
